US11739098B2 (BRISTOL-MYERS SQUIBB COMPANY, priority 2017, dated 2023)

How the values were obtained:
Assay type in all cases: cell-based
human TLR7 = target: T1, human TLR7 (Homo sapiens, UniProt Q9NYK1); assay: TLR7 inhibition reporter assay (HEK-Blue cells, SEAP reporter, gardiquimod stimulation); conditions: HEK-Blue cells overexpressing human TLR7, SEAP reporter, gardiquimod 7.5 μM
T1 construct: host or cells: HEK-Blue cells (HEK293-derived reporter line)
T1 sequence (Q9NYK1 27-1049): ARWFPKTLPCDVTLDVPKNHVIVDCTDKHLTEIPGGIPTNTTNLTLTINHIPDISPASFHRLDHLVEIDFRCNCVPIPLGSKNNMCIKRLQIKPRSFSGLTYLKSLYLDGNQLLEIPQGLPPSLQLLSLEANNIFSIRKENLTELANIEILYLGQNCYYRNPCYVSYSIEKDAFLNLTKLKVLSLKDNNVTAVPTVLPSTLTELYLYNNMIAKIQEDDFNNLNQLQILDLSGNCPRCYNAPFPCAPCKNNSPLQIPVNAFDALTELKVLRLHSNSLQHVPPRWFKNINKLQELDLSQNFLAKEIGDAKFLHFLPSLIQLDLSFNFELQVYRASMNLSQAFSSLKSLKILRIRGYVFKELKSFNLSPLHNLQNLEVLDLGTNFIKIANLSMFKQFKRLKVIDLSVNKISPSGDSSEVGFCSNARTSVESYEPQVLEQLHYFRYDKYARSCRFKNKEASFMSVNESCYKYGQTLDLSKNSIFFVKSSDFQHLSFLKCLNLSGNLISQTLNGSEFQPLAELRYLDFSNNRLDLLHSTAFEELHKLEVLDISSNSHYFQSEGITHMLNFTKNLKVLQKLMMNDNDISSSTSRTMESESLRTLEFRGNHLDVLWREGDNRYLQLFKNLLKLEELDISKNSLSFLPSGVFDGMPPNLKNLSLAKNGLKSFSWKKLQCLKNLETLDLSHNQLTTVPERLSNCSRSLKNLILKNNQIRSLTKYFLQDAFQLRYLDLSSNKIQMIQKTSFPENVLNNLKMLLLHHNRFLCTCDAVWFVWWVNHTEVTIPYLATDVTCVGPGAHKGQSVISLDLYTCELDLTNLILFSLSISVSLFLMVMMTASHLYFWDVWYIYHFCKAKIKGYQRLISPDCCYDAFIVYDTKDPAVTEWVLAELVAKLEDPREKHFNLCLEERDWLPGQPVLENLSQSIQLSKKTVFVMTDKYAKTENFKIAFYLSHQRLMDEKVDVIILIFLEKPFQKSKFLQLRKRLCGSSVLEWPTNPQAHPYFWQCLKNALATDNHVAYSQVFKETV
Procedure, shortened: (§1)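 HEK-Blue cells overexpressing human TLR7, TLR8 or TLR9 (NF-κB/AP-1-driven SEAP) pre-treated 30 min at room temperature with compound (0.05 nM–50 μM), then stimulated with gardiquimod 7.5 μM (TLR7), R848 15.9 μM (TLR8) or ODN2006 5 nM (TLR9). SEAP read colorimetrically after 22 h at 37 °C; % inhibition calculated.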

human TLR8 = target: T2, human TLR8 (Homo sapiens, UniProt Q9NR97); assay: TLR8 inhibition reporter assay (HEK-Blue cells, SEAP reporter, R848 stimulation); conditions: HEK-Blue cells overexpressing human TLR8, SEAP reporter, R848 15.9 μM
T2 construct: host or cells: HEK-Blue cells (HEK293-derived reporter line)
T2 sequence (Q9NR97 27-1041): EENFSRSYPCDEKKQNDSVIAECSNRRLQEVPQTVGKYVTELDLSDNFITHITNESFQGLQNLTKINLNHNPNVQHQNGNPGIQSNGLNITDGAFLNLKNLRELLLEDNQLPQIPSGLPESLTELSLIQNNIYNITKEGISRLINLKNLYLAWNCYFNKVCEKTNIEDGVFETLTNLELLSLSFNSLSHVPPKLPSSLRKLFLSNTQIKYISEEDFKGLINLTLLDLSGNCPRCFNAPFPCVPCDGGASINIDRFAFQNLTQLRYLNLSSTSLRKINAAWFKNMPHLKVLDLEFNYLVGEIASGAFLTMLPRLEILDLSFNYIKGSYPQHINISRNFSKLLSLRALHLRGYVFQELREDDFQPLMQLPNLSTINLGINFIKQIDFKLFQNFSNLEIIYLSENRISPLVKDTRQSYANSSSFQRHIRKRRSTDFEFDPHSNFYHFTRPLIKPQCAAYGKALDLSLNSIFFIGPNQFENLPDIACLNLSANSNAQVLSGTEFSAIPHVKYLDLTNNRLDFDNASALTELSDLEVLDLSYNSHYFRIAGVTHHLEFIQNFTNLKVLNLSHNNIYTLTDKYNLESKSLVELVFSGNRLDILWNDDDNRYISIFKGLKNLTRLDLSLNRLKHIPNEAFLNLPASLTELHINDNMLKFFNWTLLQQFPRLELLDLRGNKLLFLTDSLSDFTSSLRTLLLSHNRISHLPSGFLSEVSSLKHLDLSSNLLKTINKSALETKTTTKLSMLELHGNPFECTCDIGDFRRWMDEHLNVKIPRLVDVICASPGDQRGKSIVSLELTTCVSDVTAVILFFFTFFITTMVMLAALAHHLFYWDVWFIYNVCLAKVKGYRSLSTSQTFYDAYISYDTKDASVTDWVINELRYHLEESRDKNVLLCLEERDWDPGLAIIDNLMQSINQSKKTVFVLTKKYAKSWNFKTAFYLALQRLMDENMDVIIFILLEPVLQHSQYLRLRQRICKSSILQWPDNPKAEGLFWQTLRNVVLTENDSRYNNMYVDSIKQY
Procedure, shortened: as §1

human TLR9 = target: T3, human TLR9 (Homo sapiens, UniProt Q9NR96); assay: TLR9 inhibition reporter assay (HEK-Blue cells, SEAP reporter, ODN2006 stimulation); conditions: HEK-Blue cells overexpressing human TLR9, SEAP reporter, ODN2006 5 nM
T3 construct: host or cells: HEK-Blue cells (HEK293-derived reporter line)
T3 sequence (Q9NR96 26-1032): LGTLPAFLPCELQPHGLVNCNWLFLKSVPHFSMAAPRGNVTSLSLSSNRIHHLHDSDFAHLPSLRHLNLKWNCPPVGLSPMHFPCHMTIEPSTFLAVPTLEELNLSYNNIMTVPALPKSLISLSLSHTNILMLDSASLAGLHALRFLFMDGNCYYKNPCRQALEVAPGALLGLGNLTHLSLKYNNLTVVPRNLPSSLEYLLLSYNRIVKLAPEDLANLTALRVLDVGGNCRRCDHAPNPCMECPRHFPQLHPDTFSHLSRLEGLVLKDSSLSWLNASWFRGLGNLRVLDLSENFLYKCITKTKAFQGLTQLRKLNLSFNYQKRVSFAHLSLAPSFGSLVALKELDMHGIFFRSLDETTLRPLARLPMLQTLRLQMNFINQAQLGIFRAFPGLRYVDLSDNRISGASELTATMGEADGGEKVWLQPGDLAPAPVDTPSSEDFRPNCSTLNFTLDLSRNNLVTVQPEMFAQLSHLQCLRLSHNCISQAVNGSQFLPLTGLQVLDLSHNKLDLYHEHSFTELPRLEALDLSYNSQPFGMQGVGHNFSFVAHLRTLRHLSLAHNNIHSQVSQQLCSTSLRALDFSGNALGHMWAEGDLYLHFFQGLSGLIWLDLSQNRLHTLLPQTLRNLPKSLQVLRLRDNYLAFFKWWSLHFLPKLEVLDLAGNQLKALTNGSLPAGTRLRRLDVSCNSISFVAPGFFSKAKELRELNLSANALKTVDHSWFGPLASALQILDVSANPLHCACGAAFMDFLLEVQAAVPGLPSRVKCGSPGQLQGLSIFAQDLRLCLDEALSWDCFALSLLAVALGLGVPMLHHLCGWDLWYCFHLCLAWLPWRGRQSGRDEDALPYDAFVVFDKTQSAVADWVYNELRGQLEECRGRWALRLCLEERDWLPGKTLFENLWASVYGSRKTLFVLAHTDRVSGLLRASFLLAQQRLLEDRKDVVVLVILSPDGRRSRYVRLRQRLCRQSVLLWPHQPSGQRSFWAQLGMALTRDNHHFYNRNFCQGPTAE
Procedure, shortened: as §1

IC50 (human TLR7) | IC50 (human TLR8) | IC50 (human TLR9) | SMILES
< 100 nM | < 100 nM | 1000 to 50000 nM | Cc1cc(-c2[nH]c3ccc(C4CCN(CC(=O)N(C)C)CC4)cc3c2C(C)C)cc2ocnc12 [Example 291, 2-(4-(3-isopropyl-2-(4-methylbenzo[d]oxazol-6-yl)-1H-indol-5-yl)piperidin-1-yl)-N,N-dimethylacetamide]
100 to 1000 nM | 1000 to 50000 nM | > 50000 nM | Cc1cn2cc(-c3[nH]c4ccc(C5CCN(C(=O)CC(C)(C)O)CC5)cc4c3CC(F)F)ccc2n1 [Example 607, 1-(4-(3-(2,2-difluoroethyl)-2-(2-methylimidazo[1,2-a]pyridin-6-yl)-1H-indol-5-yl)piperidin-1-yl)-3-hydroxy-3-methylbutan-1-one]
< 100 nM | < 100 nM | 100 to 1000 nM | CNCC(=O)N1CCC(c2ccc3[nH]c(-c4cc(OC)c5nccn5c4)c(C(C)C)c3c2)CC1 [Example 559, 1-(4-(3-isopropyl-2-(8-methoxyimidazo[1,2-a]pyridin-6-yl)-1H-indol-5-yl)piperidin-1-yl)-2-(methylamino)ethan-1-one]
1000 to 50000 nM | < 100 nM | < 100 nM | Cc1c(-c2ccnc3c2ccn3C)[nH]c2ccc(C3CCN(C4CCN(C(C)C)CC4)CC3)cc12 [Example 844, 4-(5-(1′-isopropyl-[1,4′-bipiperidin]-4-yl)-3-methyl-1H-indol-2-yl)-1-methyl-1H-pyrrolo[2,3-b]pyridine]
100 to 1000 nM | 100 to 1000 nM | 1000 to 50000 nM | CC(C)c1c(-c2ccnc3[nH]ncc23)[nH]c2ccc(C3CCN(CC4CCN(C(C)C)CC4)CC3)c(F)c12 [Example 967, 4-(4-fluoro-3-isopropyl-5-(1-((1-isopropylpiperidin-4-yl)methyl)piperidin-4-yl)-1H-indol-2-yl)-1H-pyrazolo[3,4-b]pyridine]
< 100 nM | 100 to 1000 nM | 100 to 1000 nM | Cc1cn2cc(-c3[nH]c4ccc(C5CCN(C(=O)CN(C)C)CC5)cc4c3C(C)C)ccc2n1 [Example 523, 2-(dimethylamino)-1-(4-(3-isopropyl-2-(2-methylimidazo [1,2-a]pyridin-6-yl)-1H-indol-5-yl)piperidin-1-yl)ethan-1-one]

More lines, now with the values behind:

SMILES | IC50 (human TLR7) | IC50 (human TLR8) | IC50 (human TLR9)
CNC(=O)CN1CCC(c2ccc3[nH]c(-c4cc(C)c5nn(C)cc5c4)c(C(C)C)c3c2)CC1 [Example 378, 2-(4-(2-(2,7-dimethyl-2H-indazol-5-yl)-3-isopropyl-1H-indol-5-yl)piperidin-1-yl)-N-methylacetamide] | < 100 nM | 100 to 1000 nM | 1000 to 50000 nM
CC(C)c1c(-c2ccc3ncccc3c2)[nH]c2ccc(C3CCNCC3)cc12 [Example 190, 6-(3-isopropyl-5-(piperidin-4-yl)-1H-indol-2-yl)quinoline] | < 100 nM | 1000 to 50000 nM | 1000 to 50000 nM
CC(C)c1c(-c2ccnc3[nH]ncc23)[nH]c2ccc(C3CCN(C(=O)CN4CC[C@H](N(C)C)C4)CC3)cc12 [Example 590, (S)-2-(3-(dimethylamino)pyrrolidin-1-yl)-1-(4-(3-isopropyl-2-(1H-pyrazolo [3,4-b]pyridin-4-yl)-1H-indol-5-yl)piperidin-1-yl)ethan-1-one] | < 100 nM | < 100 nM | 100 to 1000 nM
Cc1cc2cc(-c3[nH]c4ccc(C5CCNCC5)cc4c3C(C)C)cc(CC(C)C)n2n1 [Example 144, 7-isobutyl-5-(3-isopropyl-5-(piperidin-4-yl)-1H-indol-2-yl)-2-methylpyrazolo[1,5-a]pyridine] | > 3130 nM | > 3130 nM | 1000 to 50000 nM
Cc1cc(-c2[nH]c3ccc(C4CCN(C(=O)CCN(C)C(C)C)CC4)cc3c2C(C)C)cn2nnnc12 [Example 624, 3-(isopropyl(methyl)amino)-1-(4-(3-isopropyl-2-(8-methyltetrazolo[1,5-a]pyridin-6-yl)-1H-indol-5-yl)piperidin-1-yl)propan-1-one] | < 100 nM | < 100 nM | 100 to 1000 nM
CCc1c(-c2ccnc3[nH]ncc23)[nH]c2ccc(C3CCN(Cc4c[nH]c(-c5ccccc5)n4)CC3)cc12 [Example 908, 4-(3-ethyl-5-(1-((2-phenyl-1H-imidazol-4-yl)methyl)piperidin-4-yl)-1H-indol-2-yl)-1H-pyrazolo[3,4-b]pyridine] | 100 to 1000 nM | 100 to 1000 nM | 1000 to 50000 nM
CC(C)c1c(-c2ccnc3[nH]ncc23)[nH]c2ccc(C3CCN(Cc4nccc5ccccc45)CC3)cc12 [Example 910, 1-((4-(3-isopropyl-2-(1H-pyrazolo[3,4-b]pyridin-4-yl)-1H-indol-5-yl)piperidin-1-yl)methyl)isoquinoline] | 100 to 1000 nM | 100 to 1000 nM | 1000 to 50000 nM
CNCC(=O)N1CCC(c2ccc3[nH]c(-c4cc(C)c5nccn5c4)c(C(C)C)c3c2)CC1 [Example 557, 1-(4-(3-isopropyl-2-(8-methylimidazo[1,2-a]pyridin-6-yl)-1H-indol-5-yl)piperidin-1-yl)-2-(methylamino)ethan-1-one] | < 100 nM | < 100 nM | 100 to 1000 nM
